Tests used:
[1] = Liver Microsome Stability Assay, human; type: in vitro ADME; settings: human liver microsomes
Description: Two separate experiments were performed as follows.
With Cofactors (NADPH): 25 μL of 10 mM NADPH was added to the incubations. The final concentrations of microsomes and NADPH were 0.5 mg/mL and 1 mM, respectively. The final concentration of microsomes was 0.5 mg/mL. The mixture was pre-warmed at 37° C. for 10 minutes. The reaction was started with the addition of 2.5 μL of 100 μM control compound or test compound solutions. Verapamil was used as positive control in this study. The final concentration of test compound or control compound was 1 μM. The incubation solution was incubated in water batch at 37° C. Aliquots of 25 μL were taken from the reaction solution at 0.5, 5, 15, 30 and 60 minutes. The reaction was stopped by the addition of 5 volumes of cold acetonitrile with IS (200 nM caffeine and 100 nM tolbutamide). Samples were centrifuged at 3, 220 g for 40 minutes. Aliquot of 100 μL of the supernatant was mixed with 100 μL of ultra-pure H2O and then used for LC-MS/MS analysis.
Data Analysis: All calculations were carried out using Microsoft Excel. Peak areas were determined from extracted ion chromatograms. The slope value, k, was determined by linear regression of the natural logarithm of the remaining percentage of the parent drug vs. incubation time curve.
The in vitro half-life (in vitro t1/2) was determined from the slope value:
Conversion of the in vitro t1/2 (min) into the in vitro intrinsic clearance (in vitro CLint, in μL/min/mg protein) was done using the following equation (mean of duplicate determinations): […]
The calculations of Scaled-up CLint(mL/min/kg), Predicted CLH (mL/min/kg) and EH were done using the following equation:
Scaled-up CLint=(0.693/t1/2)×(1/(microsomal protein concentration(0.5 mg/mL)))×Scaling Factors;Predicted CLH=(QH×Scaled-up CLint×fub)/(QH+Scaled-up CLint×fub);EH=Predicted CLH/QH
where QH is the hepatic blood flow (mL/min/kg) (Table 32), • fub is the fraction of unbound drug in plasma which is assumed to be 1.
“+++” indicates a Clint value less than 10 mL/min/Kg, […] indicates a Clint between 10 and 20 mL/min/Kg, and “+” indicates a Clint above 20 mL/min/Kg.

[2] = Caco-2 Permeability Assay; type: in vitro ADME; settings: human
Description: Preparation of Caco-2 Cells: 50 μL and 25 mL of cell culture medium were added to each well of the Transwell insert and reservoir, respectively. The HTS transwell plates were incubated at 37° C., 5% CO2 for 1 hour before cell seeding. Caco-2 cells were diluted to 6.86×10^5 cells/mL with culture medium and 50 μL of cell suspension were dispensed into the filter well of the 96-well HTS Transwell plate. Cells were cultivated for 14-18 days in a cell culture incubator at 37° C., 5% CO2, 95% relative humidity. Cell culture medium was replaced every other day, beginning no later than 24 hours after initial plating.
Assessment of Cell Monolayer Integrity: Medium was removed from the reservoir and each Transwell insert and replaced with prewarmed fresh culture medium. Transepithelial electrical resistance (TEER) across the monolayer was measured using Millicell Epithelial Volt-Ohm measuring system (Millipore, USA). The Plate was returned to the incubator once the measurement was done. The TEER value was calculated according to the following equation:
TEER measurement(ohms)×Area of membrane(cm^2)=TEER value(ohm·cm^2)
TEER value should be greater than 230 ohm·cm^2, which indicates the well-qualified Caco-2 monolayer.
Preparation of Solutions: 2 mM stock solutions in DMSO of control compounds were prepared and diluted with HBSS (10 mM HEPES, pH 7.4) to get 10 μM working solution. 0.2 mM stock solutions of test compounds in DMSO were prepared and diluted with HBSS (10 mM HEPES, pH 7.4 with 0.5% BSA) to get 1 μM working solution. Metoprolol, erythromycin and cimetidine were used as control compounds.
Performing the Drug Transport Assay: The Caco-2 plate was removed from the incubator. The monolayer was washed twice with pre-warmed HBSS (10 mM HEPES, pH 7.4). The plate was incubated at 37° C. for 30 minutes. To determine the rate of drug transport in the apical to basolateral direction, 125 μL of the working solution was added to the Transwell insert (apical compartment). A 50 μL sample was transferred immediately from the apical compartment to 200 μL of acetonitrile containing IS (100 nM alprazolam, 200 nM Caffeine and 100 nM tolbutamide) in a new 96-well plate as the initial donor sample (A-B) and it was vortexed at 1000 rpm for 10 minutes. The wells in the receiver plate (basolateral compartment) were filled with 235 μL of transport buffer. To determine the rate of drug transport in the basolateral to apical direction, 285 μL of the working solution were added to the receiver plate wells (basolateral compartment). A 50 μL sample was transferred immediately from the basolateral compartment to 200 μL of acetonitrile containing IS (100 nM alprazolam, 200 nM Caffeine and 100 nM tolbutamide) in a new 96-well plate as the initial donor sample (B-A) and it was vortexed at 1000 rpm for 10 minutes. The Transwell insert (apical compartment) was filled with 75 μL of transport buffer. The apical to basolateral direction and the basolateral to apical direction need to be done at the same time. The plates were incubated at 37° C. for 2 hours. At the end of the incubation, 50 μL samples from donor sides (apical compartment for Ap→B1 flux, and basolateral compartment for B1→Ap) and receiver sides (basolateral compartment for Ap→B1 flux, and apical compartment for B1→Ap) were transferred to wells of a new 96-well plate, followed by the addition of 4 volume of acetonitrile containing IS (100 nM alprazolam, 200 nM Caffeine and 100 nM tolbutamide). Samples were vortexed for 10 minutes, 50 μL samples were transferred to wells of a new 96-well plate, followed by the addition of 50 μL Hepes and 200 μL IS. A11 samples were vortexed for 10 minutes, and then centrifuged at 3,220 g for 40 minutes. An aliquot of 150 μL of the supernatant was mixed with an appropriate volume of ultra-pure water before LC-MS/MS analysis.
Data analysis: All calculations were carried out using Microsoft Excel. Peak areas were determined from extracted ion chromatograms. […]

Papp A→B at 2 h, 1 μM ([2]; Caco-2, pH 7.4, apical to basolateral, read-out: Caco2 Papp (AB)): 2 to 10 ×10⁻⁶ cm/s
Papp B→A at 2 h, 1 μM ([2]; Caco-2, pH 7.4, basolateral to apical, read-out: Caco2 Papp (BA)): > 10 ×10⁻⁶ cm/s
Compound: C[C@H](n1cnc2c(-c3cccnc3)nc(-c3cccnc3)cc2c1=O)C(C)(C)O [Compound 34]
Human liver microsome clearance [1]: +++ (“+++” indicates a Clint value less than 10 mL/min/Kg)
